Results taken from patent US20140038985A1, “TREATMENT REGIMENS” (S1 Pharmaceuticals, Inc., priority 2011, published 2014).

How the values were obtained:
[1] = test system: healthy volunteer; test: Patient's global impression of improvement (PGI) for sexual events: arousal, orgasm, overall satisfaction; same single-subject study; assay type: in vivo, human
Description: (§1) Method. […] (1) Treatment B: […] IR Trz 50 mg t.i.d.; […] Bup 75 mg t.i.d. A washout of 1-4 weeks occurred between each treatment. […] Sexual events were counted, and three domains (sexual arousal, orgasm, and overall satisfaction with the event) were scored. Each of the sexual event variables was converted to a simple patient's global impression of improvement (PGI; improved or not improved today compared to pre-treatment baseline). […] Bup is already recommended as a treatment for HSDD; Trz is not. Thus, Fisher's exact test was applied post-hoc to the PGIs for Treatment B vs. Treatment Llow (Llow) and vs. […] Upon the advice of the independent researcher the subject dichotomized their sexual event results in a simple daily patient's global impression of improvement: improved or not improved today (compared to pre-treatment baseline). The independent researcher, when told that the results were positive for the subject but before seeing any of the data, decided to apply categorical tests to the most obvious comparisons between treatments: for the first two weeks, the second two weeks, and for all four weeks of treatment, low-dose combination of bupropion plus trazodone vs. corresponding dose of bupropion; and high-dose the combination of bupropion plus trazodone vs. same dose of trazodone. The test used for the desire score was a two-tailed paired t test. The test used for the two-category variables was an online two-tailed Fisher's exact test. Both were from the website graphpad.com.*

[2] = test system: healthy volunteer; test: Daily 0-2 sexual desire score in a single-subject sequential four-treatment study (4 weeks each); assay type: in vivo, human; settings: for Sexual desire response (in words): overall
Description: as §1

Row | Structure (SMILES) | Improvements in arousal, % of sexual events ([1]; third and fourth weeks of use) [%] | Improvements in arousal, % of sexual events ([1]; total for all four weeks) [%] | Improvements in arousal, % of sexual events ([1]; weeks 1-2) [%] | Improvements in arousal, fraction of sexual events ([1]; weeks 1-2) | Sexual desire response (in words) [2] | 0-2 Daily Desire Score, % of max. (max. = 28) ([2]; wks 1-2) [%] | 0-2 Daily Desire Score, % of max. (max. = 28) ([2]; wks 3-4)
1 | CC(NC(C)(C)C)C(=O)c1cccc(Cl)c1 (racemic) [Bup, (±)-2-(tert-Butylamino)-1-(3-chlorophenyl)propan-1-one] | 0 | 20 | 40 | ⅖ | intermediate | 32 | 50%
2 | O=c1n(CCCN2CCN(c3cccc(Cl)c3)CC2)nc2ccccn12 [Trz, 2-{3-[4-(3-chlorophenyl)piperazin-1-yl]propyl}[1,2,4]triazolo[4,3-a]pyridin-3(2H)-one] |  |  |  |  | low | 7 | 0, 0%
